According to patent US11541050B2, “Pyrimidine derivatives for the treatment of viral infections” (JANSSEN SCIENCES IRELAND UC, priority 2011, dated 2023):

Columns and labels:
[1] = target: T1, human TLR7 (wild type sequence) (Homo sapiens, UniProt Q9NYK1); assay: TLR7 cellular NFκB-luc reporter assay, wild type TLR7; format: cell-based; design: unit not given here; conditions: lowest effective concentration; for TLR 7 wt LEC: wild type TLR7 (compounds 74 onward); for TLR7-wt_LEC: wild type TLR7 (compounds 1-73)
T1 construct: expressed in transfected cells; host or cells: HEK293
T1 sequence (Q9NYK1 27-1049): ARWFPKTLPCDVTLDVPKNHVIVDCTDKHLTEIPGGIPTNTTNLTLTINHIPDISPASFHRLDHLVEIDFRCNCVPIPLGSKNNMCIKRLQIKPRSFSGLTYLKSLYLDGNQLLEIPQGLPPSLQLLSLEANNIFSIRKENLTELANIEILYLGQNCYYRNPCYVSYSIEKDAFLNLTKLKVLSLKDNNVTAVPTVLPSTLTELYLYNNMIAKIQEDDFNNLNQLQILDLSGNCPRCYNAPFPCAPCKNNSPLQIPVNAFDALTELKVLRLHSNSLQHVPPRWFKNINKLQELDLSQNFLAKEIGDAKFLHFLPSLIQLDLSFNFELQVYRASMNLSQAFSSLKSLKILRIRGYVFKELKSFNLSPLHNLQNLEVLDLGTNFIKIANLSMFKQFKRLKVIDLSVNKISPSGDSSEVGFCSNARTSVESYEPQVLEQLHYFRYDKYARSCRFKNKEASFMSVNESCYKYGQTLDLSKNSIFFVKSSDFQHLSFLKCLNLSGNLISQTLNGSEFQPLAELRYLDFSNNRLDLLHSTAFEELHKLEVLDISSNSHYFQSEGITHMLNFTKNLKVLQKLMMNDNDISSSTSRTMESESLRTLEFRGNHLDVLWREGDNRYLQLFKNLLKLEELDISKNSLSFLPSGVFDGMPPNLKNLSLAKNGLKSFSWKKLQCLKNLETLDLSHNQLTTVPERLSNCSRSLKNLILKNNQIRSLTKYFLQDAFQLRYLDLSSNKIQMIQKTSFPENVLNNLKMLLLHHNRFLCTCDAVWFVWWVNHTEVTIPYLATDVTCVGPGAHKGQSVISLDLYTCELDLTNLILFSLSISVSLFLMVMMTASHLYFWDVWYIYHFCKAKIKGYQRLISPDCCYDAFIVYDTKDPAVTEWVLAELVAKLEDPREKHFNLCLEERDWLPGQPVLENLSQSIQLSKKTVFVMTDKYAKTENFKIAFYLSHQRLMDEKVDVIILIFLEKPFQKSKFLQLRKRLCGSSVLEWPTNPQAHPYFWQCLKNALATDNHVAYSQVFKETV
Description: (§1) The ability of compounds to activate human TLR7 and/or TLR8 was assessed in a cellular reporter assay using HEK293 cells transiently transfected with a TLR7 or TLR8 expression vector and NFκB-luc reporter construct. In one instance the TLR expression construct expresses the respective wild type sequence or a mutant sequence comprising a deletion in the second leucine-rich repeat of the TLR.
(§2) Briefly, HEK293 cells were grown in culture medium (DMEM supplemented with 10% FCS and 2 mM Glutamine). For transfection of cells in 10 cm dishes, cells were detached with Trypsin-EDTA, transfected with a mix of CMV-TLR7 or TLR8 plasmid (750 ng), NFκB-luc plasmid (375 ng) and a transfection reagent and incubated for 48 hours at 37° C. in a humidified 5% CO2 atmosphere. Transfected cells were then detached with Trypsin-EDTA, washed in PBS and resuspended in medium to a density of 1.67×10^5 cells/mL. Thirty microliters of cells were then dispensed into each well in 384-well plates, where 10 μL of compound in 4% DMSO was already present. Following 6 hours incubation at 37° C., 5% CO2, the luciferase activity was determined by adding 15 μl of Steady Lite Plus substrate (Perkin Elmer) to each well and readout performed on a ViewLux ultraHTS microplate imager (Perkin Elmer). Dose response curves were generated from measurements performed in quadruplicates. Lowest effective concentrations (LEC) values, defined as the concentration that induces an effect which is at least two fold above the standard deviation of the assay, were determined for each compound.

[2] = target: T2, human TLR8 (wild type sequence) (Homo sapiens, UniProt Q9NR97); assay: TLR8 cellular NFκB-luc reporter assay, wild type TLR8; format: cell-based; design: unit not given here; conditions: lowest effective concentration; for TLR 8 wt LEC: wild type TLR8 (compounds 74 onward); for TLR8-wt_LEC: wild type TLR8 (compounds 1-73)
T2 construct: expressed in transfected cells; host or cells: HEK293
T2 sequence (Q9NR97 27-1041): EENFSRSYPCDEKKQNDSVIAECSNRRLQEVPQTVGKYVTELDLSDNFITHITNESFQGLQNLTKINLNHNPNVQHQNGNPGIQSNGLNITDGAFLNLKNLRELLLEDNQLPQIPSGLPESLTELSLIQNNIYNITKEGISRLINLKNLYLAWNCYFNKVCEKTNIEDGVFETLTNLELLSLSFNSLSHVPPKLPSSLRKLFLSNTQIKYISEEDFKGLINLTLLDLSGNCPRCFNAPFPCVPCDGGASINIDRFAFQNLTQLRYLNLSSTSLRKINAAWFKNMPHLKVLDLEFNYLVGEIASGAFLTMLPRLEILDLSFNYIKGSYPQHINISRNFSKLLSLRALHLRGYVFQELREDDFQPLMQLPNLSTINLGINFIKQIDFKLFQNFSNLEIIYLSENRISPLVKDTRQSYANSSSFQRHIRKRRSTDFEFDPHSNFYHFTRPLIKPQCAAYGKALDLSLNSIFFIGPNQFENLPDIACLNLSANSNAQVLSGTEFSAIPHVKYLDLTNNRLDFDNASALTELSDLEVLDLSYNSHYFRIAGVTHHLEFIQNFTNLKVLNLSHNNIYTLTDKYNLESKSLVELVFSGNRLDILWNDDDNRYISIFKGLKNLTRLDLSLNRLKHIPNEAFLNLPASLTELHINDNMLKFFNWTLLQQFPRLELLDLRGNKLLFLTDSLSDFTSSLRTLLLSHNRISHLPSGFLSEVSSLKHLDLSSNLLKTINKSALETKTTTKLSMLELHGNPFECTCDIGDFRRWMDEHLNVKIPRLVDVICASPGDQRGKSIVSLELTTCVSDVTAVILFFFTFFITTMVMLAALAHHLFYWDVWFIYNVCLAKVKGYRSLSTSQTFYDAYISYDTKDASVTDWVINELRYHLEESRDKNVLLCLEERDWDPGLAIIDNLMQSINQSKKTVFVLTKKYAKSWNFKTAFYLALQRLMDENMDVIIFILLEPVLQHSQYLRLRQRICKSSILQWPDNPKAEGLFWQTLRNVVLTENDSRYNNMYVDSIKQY
Description: as §1, §2

[3] = system: HCV replicon in Huh-7 luc/neo cells; assay: Suppression of HCV replicon replication by conditioned media from compound-treated PBMC; format: cell-based, HCV type 1 b; conditions: Hepatitis C virus; conditioned media from compound-treated PBMC on Huh-7 luc/neo replicon cells (compounds 74 onward); read-out: PBMC HUH-7 EC50
Description: Activation of human TLR7 results in robust production of interferon by plasmacytoid dendritic cells present in human blood. The potential of compounds to induce interferon was evaluated by looking at the antiviral activity in the HCV replicon system upon incubation with conditioned media from peripheral blood mononuclear cells (PBMC). […] The assay utilized the stably transfected cell line Huh-7 luc/neo harboring an RNA encoding a bicistronic expression construct comprising the wild type NS3-NS5B regions of HCV type 1 b translated from an Internal Ribosome Entry Site (IRES) from encephalomyocarditis virus (EMCV), preceded by a reporter gene (Firefly-luciferase) and a selectable marker gene (neoR, neomycine phosphotransferase). The construct is flanked by 5′ and 3′ NTRs (non-translated regions) from HCV type 1 b. Continued culture of the replicon cells in the presence of G418 (neoR) is dependent on the replication of the HCV RNA. The stably transfected replicon cells that replicate HCV RNA autonomously and to high levels, encoding inter alia luciferase, were used for profiling of the conditioned cell culture media.
Briefly, PBMCs were prepared from buffy coats of at least two donors using a standard Ficoll centrifugation protocol. Isolated PBMCs were resuspended in RPMI medium supplemented with 10% human AB serum and 2×10^5 cells/well were dispensed into 384-well plates containing compounds (70 μL total volume). After overnight incubation, 10 μL of supernatant was transferred to 384-well plates containing 2.2×10^3 replicon cells/well in 30 μL (plated the day before). Following 24 hours of incubation, replication was measured by assaying luciferase activity using 40 μL/well Steady Lite Plus substrate (Perkin Elmer) and measured with ViewLux ultraHTS microplate imager (Perkin Elmer). […] Recombinant interferon α-2a (Roferon-A) was used as a standard control compound.

Structure (SMILES)	TLR 7 wt LEC [1]	TLR 8 wt LEC [2]	EC50 [3]	TLR7-wt_LEC [1]	TLR8-wt_LEC [2]
CCCC[C@@H](CCO)Nc1nc(N)ncc1OCCCc1ccccc1 [Compound 113]	0.433	2.240	251 nM	–	–
CCCCNc1nc(N)ncc1OCc1ccc(C(F)(F)F)o1 [Compound 119]	1.720	6.120	193 nM	–	–
CCC[C@@H](CCO)Nc1nc(N)ncc1OCc1ccc2ccccc2n1 [Compound 188]	0.237	0.530	86 nM	–	–
CCCCNc1nc(N)ncc1OCc1cncn1[C@H](C)c1ccccc1 [Compound 102]	0.141	5.690	12 nM	–	–
CCCCNc1nc(N)ncc1OCCCc1ccc(C(F)(F)F)cc1 [Compound 153]	10.640	–	3430 nM	–	–
CCCCNc1nc(N)ncc1OCCCc1cc(OC)cc(OC)c1 [Compound 147]	2.520	4.340	746 nM	–	–
COc1cnc(N)nc1NCCCCF [Compound 97]	21.810	5.070	2640 nM	–	–
CCCCNc1nc(N)ncc1OCCCc1ccccc1OC [Compound 149]	2.080	5.850	703 nM	–	–
CCCCNc1nc(N)ncc1OCCOCc1ccccc1 [Compound 83]	0.997	1.610	204 nM	–	–
CCCCNc1nc(N)ncc1OCc1cc(OC2Cc3ccccc3C2)c(OC)cn1 [Compound 172]	0.187	2.000	45 nM	–	–
CCCCNc1nc(N)ncc1OCc1ccc(C(F)(F)F)nc1 [Compound 121]	0.797	3.020	272 nM	–	–
CCCCNc1nc(N)ncc1OCCOc1cccc(OC)c1 [Compound 127]	1.030	2.050	256 nM	–	–
CCCCNc1nc(N)ncc1OCCOc1ccc(OC)c(OC)c1 [Compound 140]	0.617	2.250	175 nM	–	–
CCCCNc1nc(N)ncc1OCc1cccc(C(=O)c2ccccc2)c1 [Compound 103]	1.190	1.270	725 nM	–	–
CCCCNc1nc(N)ncc1OCCCc1cc(OC)c(OC)cc1OC [Compound 161]	0.672	3.480	629 nM	–	–
CCCCNc1nc(N)ncc1OCCCCCc1ccccc1 [Compound 111]	0.257	–	96 nM	–	–
CCCCNc1nc(N)ncc1OCc1nc(C)oc1C [Compound 178]	0.810	0.410	–	–	–
CCCCNc1nc(N)ncc1OCc1ccccc1 [Compound 1]	–	–	–	0.90	2.42
CCCC(CO)Nc1nc(N)ncc1OC (centres unmarked) [Compound 62]	–	–	–	21.26	0.55
CCCCNc1nc(N)ncc1OCc1csc(C)n1 [Compound 191]	0.286	0.743	–	–	–
C=CCNc1nc(N)ncc1OC [Compound 90]	>25	8.460	–	–	–
